For data set [1], the system named is Aphidius rhopalosiphi. As to conditions: not reported; reproduction.
The subject of the next data set is Apis mellifera. As to conditions: acute; duration: 48 hours; oral; unspecified; mortality.
The test system of another data set is Beta vulgaris. The note with it: acute; duration: 14 days; other.
Another data set deals with Bibionidae. The note with it: chronic/long-term; duration: 21 days; other.
The next data set relates to Canidae. The note with it: chronic; duration: 1 years; oral; Dog Other; clinical chemistry.
The next data set concerns Colinus virginianus. The note with it: for LD50: acute, oral, mortality.
The test system of the next data set is Daphnia magna. As to conditions: chronic/long-term; duration: 21 days; reproduction.
In a further data set the test system is Mus musculus. As to conditions: chronic; duration: 18 months; histopathology: neoplastic.
The next data set concerns Oncorhynchus mykiss. The note with it: acute; duration: 96 hours; mortality.
Another data set has as its system Pleurozium sp. The note with it: acute; duration: 72 hours; biomass.
Data set [2] concerns Aphidius rhopalosiphi. The data set is described as follows: LR50; higher = less toxic. The note with it: not reported; mortality.

This note sets out measurements from EPA's ToxValDB 9.5 (doi:10.2903/j.efsa.2008.138r).

≈ marks a conversion by molar mass, not a printed value. Some results are limits rather than exact numbers.

As a reminder, the NOAEL is the highest dose or exposure tested at which no adverse effect was seen. In the case of `Fc1ccc([C@@]2(Cn3cncn3)O[C@@H]2c2ccccc2Cl)cc1` [Epoxiconazole], the LEL turned out to be 246 g/ha in the data set with Aphidius rhopalosiphi [1] and 250 g/ha in the data set on Beta vulgaris. For the same compound, the LD50 with Apis mellifera is greater than 83 µg/piece; in the data set with Colinus virginianus (diet) it was greater than 5000 mg/kg; in the data set with Colinus virginianus, greater than 2000 mg/kg; in the data set with Rattus norvegicus (acute, oral, mortality), 3160 mg/kg. In addition, the NOEC in the data set with Bibionidae came out at 0.0625 mg/L; in the data set with Daphnia magna, 0.63 mg/L; with Pleurozium sp., 0.0078 mg/L; in the data set on Tagia sp. (chronic/long-term, reproduction) it was 0.167 mg/kg. For the same compound, the NOAEL turned out to be 1.6 mg/kg-day in the data set on Canidae; 0.8 mg/kg-day in the data set with Mus musculus; 2.3 mg/kg-day with Rattus norvegicus (reproduction developmental, reproduction). In addition, the NOEL in the data set with Colinus virginianus (reproduction developmental) amounted to 1 mg/kg-day. Besides, the LC50 with Oncorhynchus mykiss is 3.14 µg/mL (≈ 9.52 µM); in the data set on Tagia sp. (acute, duration: 14 days, mortality), greater than 1000 mg/kg. Also, the LR50 in the data set with Aphidius rhopalosiphi [2] was greater than 246 g/ha.
